What was measured:
[1] = target: T1, Atu0526 (Agrobacterium fabrum, UniProt Q7D199, R115A); test: isothermal titration calorimetry (no significant Tm shift in thermo shift assay); format: binding
T1 construct: gene mclA; periplasmic domain (Atu0526 LBD R115A; LBD from 36th residue to 197th residue)

[2] = target: T2, Atu0526 (Agrobacterium fabrum, UniProt Q7D199); test: isothermal titration calorimetry; thermo shift assay (Tm […] to […] °C); format: binding
T2 construct: gene mclA; periplasmic domain (LBD, from 36th residue to 197th residue), His-tagged, pET30a
T2 sequence (Q7D199 entry or part of it): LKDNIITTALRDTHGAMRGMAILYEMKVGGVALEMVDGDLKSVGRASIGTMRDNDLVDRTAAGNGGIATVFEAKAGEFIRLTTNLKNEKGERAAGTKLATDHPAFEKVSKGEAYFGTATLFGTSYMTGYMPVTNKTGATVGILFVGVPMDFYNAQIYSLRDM

T1 sequence (Q7D199 entry or part of it R115A): as the sequence (Q7D199 entry or part of it) above

Question: What does the source list for `O=CO` [formic acid]?
Answer: Kd [1]: 22.9 ± 5.36 µM; Kd [2]: 172 ± 53.6 µM

Reference: article PMC8698456, “Agrobacterium fabrum atu0526-Encoding Protein Is the Only Chemoreceptor That Regulates Chemoattraction toward the Broad Antibacterial Agent Formic Acid” (Biology, 2021)
